Test results: patent US20110243854A1, “Methods and systems for identifying modulators of longevity” (The Regents of the University of California, priority 2007, published 2011)
“Also recorded” adds a separate entry of the source.

Columns and labels:
[1] = test system: flies with reduced life span due to Cu/ZnSOD and MnSOD deficiency; details: Cu/ZnSOD and MnSOD deficient flies; cited from earlier work
wild-type flies = details: cited from earlier work
NF1^P1/P2 mutants = assay: Locomotive (up-climbing) recovery after heat stress, antioxidant-fed NF1 mutants; type: in vivo, Drosophila melanogaster; details: 20 min 37° C. heat stress
Procedure: Locomotive assays were performed on 3- to 4-d-old flies. Flies were placed in 90 mm×20 mm vertical tubes containing a small quantity of cornmeal food at the bottom with a line drawn horizontally 10 mm from the base. Every 5 min, the vials were tapped until the flies were at the bottom of the vials. Then, flies were given 15 s to climb (up-climbing behavior) toward the top of the vial, and the numbers of flies above the 10 mm line were recorded. The locomotive index is the percentage of flies that climbed up after 15 s. After 30 min of baseline recording at 22° C., flies were subjected to a brief 20-min heat treatment at 37° C. and were then returned to 22° C. for recovery. The locomotive index was then plotted against time over the course of the experiment to determine the recovery time (τ).
(§1) MnTBAP (Oxis) and MnTDEIP (Aeolus Pharmaceuticals) were dissolved in PBS (Mediatech) before further dilution with cornmeal food to make desired concentration. Red food dye (six drops per 500 ml food) was added to the food to ensure homogeneity.

NF1^P1/P2 flies = assay: Longevity assay, NF1 mutant flies fed catalytic antioxidants; type: in vivo, Drosophila melanogaster; details: for increase in survivorship: NF1^P1/P2 flies fed the antioxidant; for effect on life span of NF1 mutant flies (in words): feeding 10 μM, NF1^P1/P2 males and females
Procedure: Life spans were determined at 25° C. and 50% humidity with a 12-h light/dark cycle. Male and female flies were collected under brief CO2 anesthesia 2 to 3 d after eclosion, allowing time for mating. The number of deceased flies was recorded every 2 to 3 d, when flies were transferred to fresh cornmeal agar medium. Both Statview 5.0 and Prism GraphPad software were used for survival data and mortality curves analysis. Survival data were analyzed by Kaplan-Meier analysis in Statview 5.0. The log-rank (Mantel-Cox) test results are presented. Censored data were recorded and analyzed with GraphPad software.
as §1

[2] = test system: mitochondrial ROS production; details: cited from earlier work
w^1118 flies = assay: Longevity assay, w^1118 flies fed cAMP analogs; type: in vivo, Drosophila melanogaster
Procedure: Male and female flies were collected under brief CO2 anesthesia 2 to 3 d after eclosion, allowing time for mating. The number of deceased flies was recorded every 2 to 3 d, when flies were transferred to fresh cornmeal agar medium. Both Statview 5.0 and Prism GraphPad software were used for survival data and mortality curves analysis. Survival data were analyzed by Kaplan-Meier analysis in Statview 5.0. The log-rank (Mantel-Cox) test results are presented. […] The stock solutions were subsequently diluted into food to make the specific concentrations of 1 μM and 10 μM. Red food dye (six drops per 500 ml food) was added to the supplemented food to insure homogeneity.

[Cl-].[Mn+3].[O-]c1ccccc1C=NCCN=Cc1ccccc1[O-] [EUK-8, manganese N,N′-bis(salicyidene) ethylenediamine chloride]
effect on life span (in words) [1]: partially restored normal life span
effect on life span (in words) (wild-type flies): shortened their life spans

COC1=C(OC)C(=O)C(CCCCCCCCCC[P+](c2ccccc2)(c2ccccc2)c2ccccc2)=C(C)C1=O [MitoQ]
effect on life span (in words) [1]: partially restored normal life span
effect on life span (in words) (wild-type flies): shortened their life spans

O=C(O)c1ccc(-c2c3nc(c(-c4ccc(C(=O)O)cc4)c4ccc([n-]4)c(-c4ccc(C(=O)O)cc4)c4nc(c(-c5ccc(C(=O)O)cc5)c5ccc2[n-]5)C=C4)C=C3)cc1.[Mn+3] [MnTBAP, Mn(III)tetrakis(4-benzoic acid) porphyrin]
recovery of locomotive performance after heat stress (in words) (NF1^P1/P2 mutants): enhanced the recovery rate of locomotive performance; also recorded: rescued delayed heat stress recovery time
increase in survivorship (NF1^P1/P2 flies): approximately 50%
effect on life span of NF1 mutant flies (in words) (NF1^P1/P2 flies): restores normal life span; also recorded: extended
mitochondrial ROS production and oxidative damage (in words) [2]: reduce mitochondrial ROS production and oxidative damage

CCCC(=O)Nc1ncnc2c1ncn2[C@@H]1O[C@@H]2COP(=O)(O)O[C@H]2[C@H]1OC(=O)CCC [db-cAMP, dibutyryl-cAMP]
increase in median life span (w^1118 flies; adult males fed 1 μM or 10 μM): 30%
increase in life span (w^1118 flies; females fed 1 μM): 60%
increase in life span (w^1118 flies; females fed 10 μM): > 100%
effect on life span of w^1118 flies (in words) (w^1118 flies; male and female w^1118 flies, 1 μM and 10 μM in food): extends life spans

tetrakis(1,3-diethyl imidazolium-2-yl) meso-substituted manganoporphyrin [MnTDEIP]
recovery of locomotive performance after heat stress (in words) (NF1^P1/P2 mutants): enhanced the recovery rate of locomotive performance; also recorded: rescued delayed heat stress recovery time
increase in survivorship (NF1^P1/P2 flies): approximately 50%
effect on life span of NF1 mutant flies (in words) (NF1^P1/P2 flies): extended
